Test results from article PMC6731595, “The anti-parasitic agent suramin and several of its analogues are inhibitors of the DNA binding protein Mcm10” (Open Biology, 2019).
Where two headings read alike, the source gives them in different places.

How the values were obtained:
[1] = molecular target: T1, Xenopus internal domain Mcm10 (xMcm10-ID) (Xenopus laevis, UniProt Q5EAW4); assay: Fluorescence polarization HTS and dose-response assay, 5′-6FAM probe binding to xMcm10-ID; conditions: dose-response with repurchased or purchased compound
T1 construct: xMcm10-ID (amino acid residues 229 to 427); 6xHis (HRV 3C site) (N, cleaved yes); made in house; host or cells: E. coli BL21(DE3)
T1 sequence (Q5EAW4 229-427): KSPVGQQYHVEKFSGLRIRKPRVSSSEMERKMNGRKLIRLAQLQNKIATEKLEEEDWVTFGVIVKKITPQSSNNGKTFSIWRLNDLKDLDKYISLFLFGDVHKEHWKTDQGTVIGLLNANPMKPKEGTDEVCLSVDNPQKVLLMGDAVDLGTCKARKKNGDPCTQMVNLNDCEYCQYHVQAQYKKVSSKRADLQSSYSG
Method: (§1) A fluorescence polarization (FP) HTS assay was established to detect inhibitors of the binding of the 5′-6FAM 10-mer oligo probe to Mcm10. Test compounds dissolved in DMSO were added to 384-well plates (Corning 4514) using an Echo 550 acoustic dispenser (final DMSO 0.1%) to achieve a final single point screening concentration of 10 µM. Then 10 µl of 2× Xenopus internal domain Mcm10 (xMcm10-ID, final concentration 2 µM) in binding buffer (20 mM Tris HCl, 100 mM NaCl, 5% glycerol, and 0.01% triton, pH 7.5) was added using the Combi nL Multidrop dispenser. Finally, 10 µl of 2× 5′-6FAM DNA (final 12.5 nM) in binding buffer was added using the Multidrop. DMSO (0.1%, high signal) and probe only (low signal) controls were included on every plate. Plates were mixed for 2 min, incubated for 60 min at RT in the dark, and read on a CLARIOstar multimode plate reader (excitation: 482-16, emission: 530-40, dichroic filter: LP504).
(§2) The LOPAC pilot screen identified the sulfhydryl reagent 4-chloromercuribenzoic acid as an inhibitor in the fluorescence polarization (FP) assay. As there was no known Mcm10 inhibitor, 4-chloromercuribenzoic acid (30 μM) was used as a positive control on initial screening plates. Following the discovery of suramin as a Mcm10 inhibitor, suramin (7 μM) was used as a positive control on subsequent screening plates. To confirm activity, screening hits were tested in dose response experiments (8 concentrations in duplicate) using xMcm10-ID. Similar dose response experiments were conducted with suramin and its analogs to confirm activity for hMcm10-ID (1 μM) and xMcm10-FL (2 μM) and to determine selectivity relative to RPA70AB (0.4 μM). Saturation experiments for each protein were conducted using increasing concentrations of protein with a fixed probe concentration (12.5 nM). FP was measured in mP units, and ∆mP values for each well were calculated as the difference between the measured mP and the average of the “probe only” controls. […] The parallel and perpendicular mP values were also used to calculate total fluorescence intensity (TFI) determined by the sum of parallel mP + (2 x perpendicular mP). TFI was used to detect fluorescence interference by compounds [1]. […] IC50 values were calculated using the four parameter logistic equation in Prism 6.0 (GraphPad). Ki values were obtained using an online Ki calculator according to the equations of Nikolovska-Coleska (http://sw16.im.med.umich.edu/soft-ware/calc_ki/). KD values were calculated using the one site or two site binding equations in Prism 6.0 (GraphPad).

[2] = test system: DNA replication of sperm chromatin in Xenopus egg extracts; assay: In vitro DNA replication assay in Xenopus S-phase egg extracts ([α-32P]dGTP incorporation); format: biochemical; conditions: 10, 50, 150 and 300 µM
Method: Xenopus egg extracts were prepared according to the method of Murray. Replication of sperm chromatin in S-phase egg extracts was monitored as previously described. Compounds identified by HTS were added to replication reactions immediately prior to addition of [α-^32P]dGTP (Perkin Elmer BLU514H250UC).
To determine whether the four remaining confirmed HTS hits affected DNA replication, in vitro replication assays were performed using Xenopus S-phase egg extracts incubated with sperm chromatin [25, 34]. DNA replication was measured in the presence of bronopol, fumarprotocetraric acid, iriginol and suramin or DMSO by the incorporation of [α-^32P]dGTP. […] For this reason, further studies focused on suramin alone.
Figure 1. Suramin inhibits DNA replication in an in vitro Xenopus replication assay. HTS hits were evaluated for inhibition of [α-^32P]dGTP incorporation into DNA using a cell-free extract prepared from Xenopus eggs at increasing concentrations (10, 50, 150 and 300 µM indicated by black triangle from right to left). No chemical (–) and DMSO were used as negative controls for replication inhibition (far left and far right lanes).

[3] = molecular target: T2, human RPA70AB (A and B DNA binding domains of RPA70) (Homo sapiens, UniProt P27694); assay: Fluorescence polarization competition assay, displacement of 5′-6FAM ssDNA probe from RPA70AB; conditions: for Ki: mean ± s.e.m., n ≥ 3; for selectivity RPA/ hMcm10: ratio of hRPA70AB Ki2 to hMcm10-ID Ki (FP)
T2 construct: recombinant human RPA70AB (181-422) in a pSV281 vector; 6xHis (TEV site) (N, cleaved yes); made in house; host or cells: Escherichia coli BL21(DE3)
T2 sequence (P27694 181-422): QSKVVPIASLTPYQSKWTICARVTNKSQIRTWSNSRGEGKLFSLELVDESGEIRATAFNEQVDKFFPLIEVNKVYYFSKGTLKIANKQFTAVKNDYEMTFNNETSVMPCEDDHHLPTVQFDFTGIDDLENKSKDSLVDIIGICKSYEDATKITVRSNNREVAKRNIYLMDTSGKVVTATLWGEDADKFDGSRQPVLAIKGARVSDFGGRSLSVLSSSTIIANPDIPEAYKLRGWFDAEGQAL
Method: as §1, §2

[4] = molecular target: T3, full-length Xenopus Mcm10 (xMcm10-FL) (Xenopus laevis, UniProt Q5EAW4); assay: Fluorescence polarization competition assay, displacement of 5′-6FAM ssDNA probe from xMcm10-FL; format: binding; conditions: averages of n = 2; xMcm10-FL 2 μM
T3 construct: The full-length xMcm10 was expressed with MBP fused onto the N-terminus and 6x-His tag attached to the C-terminus; 6xHis (C); made in house; host or cells: E. coli BL21(DE3), as for the ID constructs ('as described above')
T3 sequence (Q5EAW4 1-860): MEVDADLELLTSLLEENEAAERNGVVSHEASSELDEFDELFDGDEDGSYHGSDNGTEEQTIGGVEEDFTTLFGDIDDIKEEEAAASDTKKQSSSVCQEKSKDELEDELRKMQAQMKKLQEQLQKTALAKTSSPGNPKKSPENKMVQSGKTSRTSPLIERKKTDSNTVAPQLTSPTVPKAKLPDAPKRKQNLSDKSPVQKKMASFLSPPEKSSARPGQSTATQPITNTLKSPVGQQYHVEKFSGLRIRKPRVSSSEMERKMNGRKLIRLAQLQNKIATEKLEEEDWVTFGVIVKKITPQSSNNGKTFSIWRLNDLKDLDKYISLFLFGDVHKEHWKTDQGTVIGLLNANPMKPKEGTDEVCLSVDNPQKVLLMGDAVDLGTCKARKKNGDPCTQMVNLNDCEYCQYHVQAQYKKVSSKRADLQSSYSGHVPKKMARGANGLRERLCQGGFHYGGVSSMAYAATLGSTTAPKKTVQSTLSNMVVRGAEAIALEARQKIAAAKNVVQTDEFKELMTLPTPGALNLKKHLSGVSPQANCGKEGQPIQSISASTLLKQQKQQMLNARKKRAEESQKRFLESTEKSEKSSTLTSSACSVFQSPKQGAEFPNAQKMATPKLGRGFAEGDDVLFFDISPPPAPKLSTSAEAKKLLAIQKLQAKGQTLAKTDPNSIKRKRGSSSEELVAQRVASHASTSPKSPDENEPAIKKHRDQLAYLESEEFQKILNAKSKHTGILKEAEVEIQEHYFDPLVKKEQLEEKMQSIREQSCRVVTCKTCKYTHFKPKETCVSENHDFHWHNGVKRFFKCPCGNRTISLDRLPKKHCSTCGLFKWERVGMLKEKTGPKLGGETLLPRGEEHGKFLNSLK
Method: as §1, §2

[5] = molecular target: T4, human Mcm10 internal domain (hMcm10-ID) (Homo sapiens, UniProt Q7L590); assay: Fluorescence polarization competition assay, displacement of 5′-6FAM 10-mer ssDNA probe from hMcm10-ID; format: binding; conditions: mean ± s.e.m., n ≥ 3; hMcm10-ID 1 μM, probe 12.5 nM
T4 construct: hMcm10-ID (residues 237 to 436) were expressed in E. coli strain BL21(DE3); 6xHis (HRV 3C site) (N, cleaved yes); made in house; host or cells: E. coli BL21(DE3)
T4 sequence (Q7L590 237-436): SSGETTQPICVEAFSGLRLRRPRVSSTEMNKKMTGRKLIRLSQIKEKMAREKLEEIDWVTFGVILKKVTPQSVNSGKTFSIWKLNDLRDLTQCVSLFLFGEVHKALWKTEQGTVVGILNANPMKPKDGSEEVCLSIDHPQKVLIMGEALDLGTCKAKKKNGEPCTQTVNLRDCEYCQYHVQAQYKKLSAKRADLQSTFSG
Method: as §1, §2

[6] = molecular target: T5, hMcm10-ID (Homo sapiens, UniProt Q7L590); assay: Surface plasmon resonance binding kinetics on immobilized hMcm10-ID (Biacore S200); conditions: for surface plasmon resonance hMcm10-ID kd / kon / Kd: 1:1 model, 6000–8000 RU; for surface plasmon resonance hMcm10-ID kd / kon: 25°C; for kon: read-out: surface plasmon resonance hMcm10-ID ka; for Kd: calculated from association and dissociation rate constants, read-out: surface plasmon resonance hMcm10-ID kinetic KD; for SPR binding kinetics (description of sensorgrams): immobilized hMcm10-ID
T5 construct: hMcm10-ID (residues 237 to 436) were expressed in E. coli strain BL21(DE3); 6xHis (HRV 3C site) (N, cleaved yes); made in house; host or cells: E. coli BL21(DE3)
T5 sequence (Q7L590 237-436): T4 sequence (Q7L590 237-436)
Method: SPR experiments were performed using a Biacore S200 (GE Healthcare) equipped with a research-grade CM5 sensor chip. hMcm10-ID, at a concentration of 15 µg ml^−1 in 10 mM sodium acetate, pH 4.5, […], using an amine coupling kit (GE Healthcare) to either flow cell 2 or 4 following manufacturer directions. The reference flow cell (either flow cell 1 or 3) was left untreated. All compounds were dissolved in running buffer (10 mM PBS, 150 mM NaCl, 0.005% P20, pH 7.4) prior to injection over the chip surface at a flow rate of 30 µl min^−1 and at a temperature of 25°C. Zero concentration samples were injected for double referencing. Data were collected at a rate of 40 Hz and were fitted to a simple 1 : 1 interaction model (unless otherwise noted) using the global data analysis within the Biacore S200 evaluation software.

[7] = molecular target: T6, xMcm10-ID (Xenopus laevis, UniProt Q5EAW4 229-427); assay: fluorescence polarization; FP: 20 mM Tris-HCl, 100 mM NaCl, 5% glycerol, 0.01% Triton, pH 7.5, RT 60 min, 12.5 nM probe (0.1% DMSO in HTS); conditions: protein: recombinant; label: 5'-6-FAM; single strand
T6 sequence: T1 sequence (Q5EAW4 229-427)

[8] = molecular target: RPA70AB (Homo sapiens, UniProt P27694 181-422); assay: as above; conditions: protein: recombinant; label: 5'-6-FAM; single strand
Chain of RPA70AB (P27694 181-422): as the sequence (P27694 181-422) above

[9] = molecular target: T7, xMcm10-FL (Xenopus laevis, UniProt Q5EAW4 1-860); assay: as above; conditions: protein: recombinant; label: 5'-6-FAM; single strand
T7 sequence: T3 sequence (Q5EAW4 1-860)

[10] = molecular target: T8, hMcm10-ID (Homo sapiens, UniProt Q7L590 237-436); assay: as above; conditions: protein: recombinant; label: 5'-6-FAM; single strand
T8 sequence: T4 sequence (Q7L590 237-436)

[11] = predominant low-affinity (or only) component, read-out: fluorescence polarization hRPA70AB Ki2

## Cc1cc(O)c(C=O)c2c1C(=O)Oc1c(COC(=O)/C=C/C(=O)O)c(O)c(C(=O)O)c(C)c1O2 [fumarprotocetraric acid]
[1]
  inhibition of 5′-6FAM probe binding to xMcm10-ID (result in words): active
[2]
  DNA replication, [α-32P]dGTP incorporation (result in words): only suramin exhibited a dose-dependent decrease in DNA replication

## O=C(Nc1cc(C(=O)Nc2ccc(S(=O)(=O)O)cc2)cc(C(=O)Nc2ccc(S(=O)(=O)O)cc2)c1)Nc1cc(C(=O)Nc2ccc(S(=O)(=O)O)cc2)cc(C(=O)Nc2ccc(S(=O)(=O)O)cc2)c1 [NF110]
[3]; high-affinity component of biphasic displacement curve, read-out: fluorescence polarization hRPA70AB Ki1
  Ki: 210 ± 40 nM
[3]; [11]
  Ki: 23000 ± 1000 nM
[3]
  selectivity RPA/ hMcm10: 10
[4]
  Ki: 2900 nM
[5]
  Ki: 2300 ± 100 nM
[6]
  surface plasmon resonance hMcm10-ID kd: 0.35 ± 0.19 s^−1
  kon: 290000 ± 1.6e+10 M⁻¹ s⁻¹
  Kd: 1500 ± 200 nM
  SPR binding kinetics (description of sensorgrams): predominantly rapid kinetics

## O=C(O)c1cc[c]([Hg][Cl])cc1 [4-chloromercuribenzoic acid]
[1]
  inhibition of 5′-6FAM probe binding to xMcm10-ID (result in words): active

## O=C(Nc1cc(C(=O)Nc2ccc(S(=O)(=O)O)cc2S(=O)(=O)O)cc(C(=O)Nc2ccc(S(=O)(=O)O)cc2S(=O)(=O)O)c1)Nc1cc(C(=O)Nc2ccc(S(=O)(=O)O)cc2S(=O)(=O)O)cc(C(=O)Nc2ccc(S(=O)(=O)O)cc2S(=O)(=O)O)c1 [NF449]
[3]; FP
  selectivity for hMcm10 over RPA70AB: more than 10 fold
[3]; below lower limit of the sensitivity of the assay, read-out: IC50 value for the high affinity component, hRPA70AB
  IC50: 93 nM
[3]; [11]
  Ki: 14000 ± 400 nM
[3]
  selectivity RPA/ hMcm10: 32
[4]
  Ki: 1900 nM
[5]
  Ki: 440 ± 40 nM
[6]
  surface plasmon resonance hMcm10-ID kd: 0.59 ± 0.10 s^−1
  kon: 780000 ± 1e+09 M⁻¹ s⁻¹
  Kd: 740 ± 130 nM
  SPR binding kinetics (description of sensorgrams): predominantly rapid kinetics

## CC(=O)Oc1cc(-c2coc3cc(OC(C)=O)c(OC(C)=O)c(OC(C)=O)c3c2=O)cc(OC(C)=O)c1OC(C)=O [iriginol hexaacetate]
[1]
  inhibition of 5′-6FAM probe binding to xMcm10-ID (result in words): active
[2]
  DNA replication, [α-32P]dGTP incorporation (result in words): only suramin exhibited a dose-dependent decrease in DNA replication

## O=[N+]([O-])C(Br)(CO)CO [bronopol]
[1]
  inhibition of 5′-6FAM probe binding to xMcm10-ID (result in words): active
[2]
  DNA replication, [α-32P]dGTP incorporation (result in words): only suramin exhibited a dose-dependent decrease in DNA replication

## ATGGTAGGCA (ssDNA) [5'-6FAM 10-mer]
[7]
  Kd: 1300 nM
[8]
  Kd: 370 nM
[9]
  Kd: 1100 nM
[10]
  Kd: 2290 nM
